Assay results taken from patent publication US9718760B2, “Plasminogen activator inhibitor-1 inhibitors and methods of use thereof” (THE REGENTS OF THE UNIVERSITY OF MICHIGAN, priority 2012, dated 2017).

Columns and labels:
Assay type in all cases: biochemical
Conditions in all cases: physiologic buffer
[1] = target: anti-thrombin III (ATIII) (Homo sapiens (Human), UniProt P01008); experiment: Fluorometric ATIII/αIIa IC50 plate assay at pH 7.8 (specificity control)
Method: (§1) Additional fluorometric plate assays were carried out, as set out below, to determine the IC50 of various synthesized compounds as PAI-1 inhibitors.
Alpha-thrombin is an active enzyme, related to uPA or tPA. Alpha-thrombin is inhibited by the serpin ATIII, which is closely related to PAI-1. This assay was used therefore as a control in testing for specificity of the PAI-1 inhibitor compounds. Thus, any compound that is specific for inhibiting PAI-1 should not inhibit ATIII.
PAI-1 inhibitor compounds were dissolved in DMSO to a final concentration of (10-50 mM), depending upon solubility. […] 100 μL of 100 μM fluorogenic, tripeptide aminomethylcoumarin benzoyl Phe-Val-Arg-AMC substrate was then added and residual αIIa activity was determined based upon cleavage of this substrate. The rate of AMC release by αIIa was measured at an excitation wavelength of 370 nm and an emission wavelength of 440 nm. Controls included PAI-1 and αIIa in the absence of compound and αIIa alone. Percent PAI-1 inhibition is calculated using the following formula: [(αIIa alone-αIIa/PAI-1+ compound)/(αIIa alone-PAI-1/αIIa)]*100%. The IC50 is calculated using Graphit (IC50 0-100%).

[2] = target: T1, recombinant active human PAI-1 (Homo sapiens (Human), UniProt P05121); experiment: Fluorometric PAI-1/tPA IC50 plate assay at pH 7.8
T1 sequence (P05121 24-402): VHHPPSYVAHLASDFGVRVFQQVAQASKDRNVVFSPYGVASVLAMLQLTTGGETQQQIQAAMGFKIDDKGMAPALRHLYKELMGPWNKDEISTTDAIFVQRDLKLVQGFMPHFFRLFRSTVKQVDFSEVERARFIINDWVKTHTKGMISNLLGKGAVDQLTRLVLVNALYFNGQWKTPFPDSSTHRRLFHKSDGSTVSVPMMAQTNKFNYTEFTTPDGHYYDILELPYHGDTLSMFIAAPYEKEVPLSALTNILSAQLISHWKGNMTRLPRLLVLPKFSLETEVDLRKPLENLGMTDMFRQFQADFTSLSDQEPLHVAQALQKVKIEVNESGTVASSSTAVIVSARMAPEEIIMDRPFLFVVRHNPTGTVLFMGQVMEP
Method: as §1
PAI-1 inhibitor compounds were dissolved in DMSO to a final concentration of (10-50 mM), depending upon solubility. […] Tissue type PA activity in each reaction mixture was determined by adding Phe-Gly-Arg-AMC fluorogenic substrate (100 μL of 100 μM) (Centerchem). The rate of AMC release by tPA was measured at an excitation wavelength of 370 nm and an emission wavelength of 440 nm. Controls included PAI-1 and tPA in the absence of compound and tPA alone. Percent PAI-1 inhibition was calculated using the following formula: [(tPA alone-tPA/PAI-1+ compound)/(tPA alone-PAI-1/tPA)]*100%. The IC50 is calculated using Graphit (IC50 0-100%).

[3] = target: T1, recombinant active human PAI-1; experiment: Fluorometric PAI-1/uPA IC50 plate assay at pH 7.8
Method: To determine the efficacy of various synthesized compounds as PAI-1 inhibitors at pH 7.8, additional fluorometric plate assays were carried out to measure the half maximal inhibitory concentration (IC50) of these compounds on recombinant active human PAI-1 in vitro.
PAI-1 inhibitor compounds were dissolved in DMSO to a final concentration of (10-50 mM), depending upon solubility. […] Fluorescence, as a measure of the rate of AMC release by uPA, was read at the following wavelengths; excitation 370 nm, emission 440 nm. Controls included PAI-1 and uPA in the absence of compound and uPA alone. Percent PAI-1 inhibition was calculated using the following formula: [(uPA alone-uPA/PAI-1+ compound)/(uPA alone-PAI-1/uPA)]*100%. The IC50 was calculated using Graphit (IC50 0-100%).

Sequence of anti-thrombin III (ATIII) (P01008 33-464 limits assumed, species assumed): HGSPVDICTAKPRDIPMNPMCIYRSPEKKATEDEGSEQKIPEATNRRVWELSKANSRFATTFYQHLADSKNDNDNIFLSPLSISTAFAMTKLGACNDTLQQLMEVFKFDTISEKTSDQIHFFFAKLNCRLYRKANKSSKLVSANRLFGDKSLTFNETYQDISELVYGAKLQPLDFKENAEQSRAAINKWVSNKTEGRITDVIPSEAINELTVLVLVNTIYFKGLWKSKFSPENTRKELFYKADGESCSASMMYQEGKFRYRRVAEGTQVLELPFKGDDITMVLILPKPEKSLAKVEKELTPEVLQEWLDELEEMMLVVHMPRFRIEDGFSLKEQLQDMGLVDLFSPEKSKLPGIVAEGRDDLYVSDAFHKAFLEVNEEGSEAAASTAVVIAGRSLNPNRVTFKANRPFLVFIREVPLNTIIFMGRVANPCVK

Row | Compound | IC50 [1] [µM] | IC50 [2] [µM] | IC50 [3] [µM]
1 | CCCCCCCCN(S(=O)(=O)c1ccc(O)c(O)c1)S(=O)(=O)c1cc(F)c(O)c(F)c1 [C152] | 87 | 1.71 | 1.57
2 | O=S(=O)(c1ccc(O)c(O)c1)N(c1ccccc1)S(=O)(=O)c1ccc(O)c(O)c1 [C153] |  | 1.02 | 0.7
3 | CCCCCCCCN(S(=O)(=O)c1cc(F)c(O)c(F)c1)S(=O)(=O)c1cc(F)c(O)c(F)c1 [C155] | 2330 | 34.8 | 30.4
4 | CC(C)(C)OC(=O)NCCCOC(=O)c1cc(O)c(O)c(O)c1 [C156] |  | 581 | 189
5 | CCCCCCCCCCN(S(=O)(=O)c1ccc(O)c(O)c1)S(=O)(=O)c1ccc(O)c(O)c1 [C157] | 44.4 | 0.98 | 0.25
6 | CCCCCCCCCCCCN(S(=O)(=O)c1ccc(O)c(O)c1)S(=O)(=O)c1ccc(O)c(O)c1 [C158] | 547 | 1.44 | 2.6
7 | O=S(=O)(NCc1ccccc1)c1ccc(O)c(O)c1 [C160] | 2330 | 58.2 | 39
8 | CCCCCCCCNC(=O)c1cc(O)c(O)c(O)c1 [C161] | 1670 | 2.21 | 3.7
9 | O=S(=O)(c1ccc(O)c(O)c1)N(CCc1ccccn1)S(=O)(=O)c1ccc(O)c(O)c1 [C162] |  | 7.59 | 3.9
10 | O=S(=O)(c1ccc(O)c(O)c1)N(c1cccc(C(F)(F)F)c1)S(=O)(=O)c1ccc(O)c(O)c1 [C163] |  | 0.611 | 0.288
11 | O=S(=O)(c1ccc(O)c(O)c1)N(c1ccc(-c2ccccc2)cc1)S(=O)(=O)c1ccc(O)c(O)c1 [C165] |  | 0.51 | 0.35
